{
  "source": "patent US20230028463A1",
  "about": "“METHOD FOR PRODUCING ACTINIC RAY-SENSITIVE OR RADIATION-SENSITIVE RESIN COMPOSITION, PATTERN FORMATION METHOD, AND METHOD FOR MANUFACTURING ELECTRONIC DEVICE” (FUJIFILM Corporation, priority 2020, published 2023)",
  "test": "Solubility of photoacid generator in 100 g of solvent at 25° C.",
  "format": "physicochemical",
  "conditions": "in 100 g of PGME at 25° C.",
  "procedure": "<Solubility (g) of Photoacid Generator in 100 g of Solvent at 25° C.>\n“A”: The solubility is more than 3 g\n“B”: The solubility is 0.5 to 3 g\n“C”: The solubility is less than 0.5 g",
  "data": [
    {"smiles": "c1ccc([S+]2CCCC2)cc1", "note": "[B-4]", "values": [
      {"measurement": "Solubility (25° C.) of photoacid generator in solvent", "result": "A (The solubility is more than 3 g)"}
    ]}
  ]
}
